target: T1, human GPR120 (Homo sapiens, UniProt Q5NUL3); test: GPR120 pERK AlphaScreen SureFire Assay (human GPR120 pERK assay); assay type: cell-based; details: CHO cells stably transfected with the short form of human GPR120 receptor
T1 construct: expressed in transfected cells; host or cells: CHOA12 cells or CHO-K1 cells, stably transfected
T1 sequence (Q5NUL3 1-361): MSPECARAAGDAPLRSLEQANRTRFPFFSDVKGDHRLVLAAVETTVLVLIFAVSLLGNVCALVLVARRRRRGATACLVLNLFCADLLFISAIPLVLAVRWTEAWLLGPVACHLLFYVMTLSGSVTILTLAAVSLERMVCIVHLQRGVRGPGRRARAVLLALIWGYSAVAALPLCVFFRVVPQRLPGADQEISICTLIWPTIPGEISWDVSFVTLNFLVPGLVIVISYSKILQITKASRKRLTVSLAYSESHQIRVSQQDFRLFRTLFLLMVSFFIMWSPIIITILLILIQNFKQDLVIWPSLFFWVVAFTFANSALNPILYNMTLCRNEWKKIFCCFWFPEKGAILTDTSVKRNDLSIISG
Excerpt: GPR120 activity was monitored by measuring phosphorylation of ERK (pERK), since G protein receptors are known to activate the ERK signaling cascade either directly and/or through recruitment of arrestin that serves as a scaffold for downstream signaling events.
GPR120 pERK AlphaScreen SureFire Assay
The human and mouse GPR120-mediated intracellular phosphorylated ERK assays were established using CHOAl2 cells stably transfected with the short form of human or mouse GPR120 receptor. Cells were cultured in growth medium consisting of F-12 media (Invitrogen Cat. #11765) with 5% Charcoal/Dextran FBS (Invitrogen Cat. #12676-029), 500 μg/mL GENETICIN® (Life Technologies Cat. #10131-027) and 250 μg/mL Zeocin (Invitrogen Cat. #R250-01). Cells were cryo preserved at a concentration of 2×10^7 cells/mL, in 90% Charcoal/Dextran FBS and 10% DMSO, and frozen in liquid nitrogen at a low passage number.
For the pERK assay, 2×10^7 cells/mL cryopreserved human and mouse cells were thawed rapidly in a 37° C. water bath and added to a T-225 flask containing 50 mL growth medium. The flasks were placed in a tissue culture incubator overnight (37° C., 5% CO2). The next day, cells were harvested with trypsin (Gibco Cat. #25300-054), resuspended in serum-containing growth medium and counted using a Cellometer and volume adjusted to a concentration of 0.6×10^6cells/mL. Cells were plated into 384-well clear bottom tissue culture plates (BD Cat. #353962) at 50 μL/well, for a density of 30,000 cells/well using a MULTIDROP® and incubated for 16-18 hours (overnight) at 37° C. with 5% CO2. The next day, cells were serum starved in 30 μL of F-12 media without any serum or antibiotics for 2 hours at 37° C.
Test compounds were 3-fold, 11-point serially diluted in DMSO in a REMP assay plate (Matrix Cat. #4307) by Tecan and 5 μL was transferred into an ECHO source plate (Labcyte Cat. #LC-0200). Cells were then stimulated with 50 nL of compound dilutions using ECHO liquid handler for 7 minutes at 37° C. Compounds ranged from final assay concentrations of 33.33 μM to 0.56 nM.
The media was then dumped and cells lysed with 20 μL of 1× Lysis buffer from the AlphaScreen SureFire Phospho-ERK 1/2 Kit (Perkin Elmer Cat. #6760617M). The lysis buffer was diluted 5-fold with water before use. The plate was agitated on a shaker for 10 minutes after which 2 μL was transferred into a 384-well white proxiplate (Perkin Elmer Cat. #6008289). The SureFire assay reagent mix was prepared by mixing 60 parts Reaction Buffer, 10 parts Activation Buffer, 1 part Donor Beads, 1 part Acceptor Beads (Perkin Elmer Cat. #TGRES10K). 3.5 μL/well of this reagent mix was manually added to the proxiplate with a multichannel pipettor. Plates were spun down at 1000 rpm for 2 minutes, followed by light-protected incubation at room temperature for 2 hours. The plates were read on the Alpha-technology compatible Envision multilabel plate reader using AlphaScreen protocol according to manufacturer's specifications. The agonist effect of compounds was expressed as 100×(average sample-average blank)/(average total−average blank) where sample is the luminescence activity in the presence of test compound, blank is equal to the luminescence activity in the presence of DMSO control and the total is signal induced by 50 μM linolenic acid as reference compound. Activation data for the test compound over a range of concentrations was plotted as percentage activation of the test compound (100%=maximum response). After correcting for background, EC50 values were determined. The EC50 is defined as the concentration of test compound which produces 50% of the maximal response and was quantified using the 4 parameter logistic equation to fit the data.
The human and mouse GPR120-mediated intracellular phosphorylated ERK assays were also established using CHO-K1 cells stably transfected with the short form of human or mouse GPR120 receptor. […]

EC50 | SMILES
610 nM | CC1(C)Cc2cc(Cl)cc(COC34CCC(CCC(=O)O)(CC3)CC4)c2O1 [Example 1, 3-(4-((5-Chloro-2,2-dimethyl-2,3-dihydrobenzofuran-7-yl)methoxy)bicyclo[2.2.2]octan-1-yl)propanoic acid]
2470 nM | CC1(C)Cc2cc(Cl)cc(COC34CCC(CCCC(=O)O)(CC3)CC4)c2O1 [Example 2, 4-(4-((5-Chloro-2,2-dimethyl-2,3-dihydrobenzofuran-7-yl)methoxy)bicyclo[2.2.2]octan-1-yl)butanoic acid]
1110 nM | N#Cc1cccc(OC23CCC(CCCC(=O)O)(CC2)CC3)c1 [Example 3, 4-(4-(3-Cyanophenoxy)bicyclo[2.2.2]octan-1-yl)butanoic acid]
2740 nM | Cc1cc(COC23CCC(CCC(=O)O)(CC2)CC3)n(-c2ccc(Cl)cc2)n1 [Example 4, 3-(4-((1-(4-Chlorophenyl)-3-methyl-1H-pyrazol-5-yl)methoxy)bicyclo[2.2.2]octan-1-yl)propanoic acid]
430 nM | O=C(O)CCC12CCC(OCc3cccc(Oc4ccccc4)c3)(CC1)CC2 [Example 5, 3-(4-(3-Phenoxy-benzyloxy)bicyclo[2.2.2]octan-1-yl)propanoic acid]
400 nM | O=C(O)CCC12CCC(OCc3ccccc3Oc3ccccc3)(CC1)CC2 [Example 6, 3-(4-(2-Phenoxy-benzyloxy)bicyclo[2.2.2]octan-1-yl)propanoic acid]
6910 nM | COc1cccc(COC23CCC(CCCC(=O)O)(CC2)CC3)c1 [Example 7, 4-(4-(3-Methoxy-benzyloxy)bicyclo[2.2.2]octan-1-yl)butanoic acid]
280 nM | O=C(O)CCC12CCC(OCc3cc(F)ccc3Oc3ccccc3)(CC1)CC2 [Example 9, 3-(4-(5-Fluoro-2-phenoxybenzyloxy)bicyclo[2.2.2]octan-1-yl)propanoic acid]
680 nM | O=C(O)COCC12CCC(OCc3cccc(Oc4ccccc4)c3)(CC1)CC2 [Example 10, 2-((4-(3-Phenoxybenzyloxy)bicyclo[2.2.2]octan-1-yl)methoxy)acetic acid]
870 nM | CC(C)Oc1cc(F)cc(COC23CCC(CCC(=O)O)(CC2)CC3)c1 [Example 11, 3-(4-(3-Fluoro-5-isopropoxybenzyloxy)bicyclo[2.2.2]octan-1-yl)propanoic acid]
540 nM | O=C(O)CCC12CCC(OCc3cc(F)cc(Oc4ccc(F)cc4)c3)(CC1)CC2 [Example 12, 3-(4-(3-Fluoro-5-(4-fluorophenoxy)benzyloxy)bicyclo[2.2.2]octan-1-yl)propanoic acid]
2690 nM | CC1(C)Cc2cc(Cl)cc(OCC34CCC(/C=C/C(=O)O)(CC3)CC4)c2O1 [Example 13, (E)-3-(4-(((5-Chloro-2,2-dimethyl-2,3-dihydrobenzofuran-7-yl)oxy)methyl)bicyclo[2.2.2]octan-1-yl)acrylic acid]
900 nM | CC1(C)Cc2cccc(OCC34CCC(CCC(=O)O)(CC3)CC4)c2O1 [Example 14, 3-(4-(((2,2-Dimethyl-2,3-dihydrobenzofuran-7-yl)oxy)methyl)bicyclo[2.2.2]octan-1-yl)propanoic acid]
1340 nM | CC1(C)Cc2cc(Cl)cc(OCC34CCC(CCC(=O)O)(CC3)CC4)c2O1 [Example 15, 3-(4-(((5-Chloro-2,2-dimethyl-2,3-dihydrobenzofuran-7-yl)oxy)methyl)bicyclo[2.2.2]octan-1-yl)propanoic acid]

SMILES | EC50
O=C(O)CCC12CCC(OCc3cc(F)cc(Oc4ccccc4)c3)(CC1)CC2 [Example 8, 3-(4-(3-Fluoro-5-phenoxy-benzyloxy)bicyclo [2.2.2]octan-1-yl)propanoic acid] | 270 nM
